Values of other authors, collected in publication PMC8674003 (CPT: Pharmacometrics & Systems Pharmacology, 2021).
Positions of bridges follow the written chain, without caps; N, C: chain ends. Non-standard residues stand in square brackets, D forms with d. Residues, ends and D or L forms follow the SMILES beside them. *: point of attachment. X1 = CC[C@H](C)CCCCC(=O)*; Dab = NCC[C@H](N)C(=O)O

Legend:
[1] = IV
[2] = components administered individually to Sprague-Dawley rats
[3] = M4 (Wang et al.), 2 CMT, Phoenix NLME (7.0), 46 patients

CC[C@H](C)CCCCC(=O)N[C@@H](CCN)C(=O)N[C@H](C(=O)N[C@@H](CCN)C(=O)N[C@H]1CCNC(=O)[C@H]([C@@H](C)O)NC(=O)[C@H](CCN)NC(=O)[C@H](CCN)NC(=O)[C@H](CC(C)C)NC(=O)[C@@H](Cc2ccccc2)NC(=O)[C@H](CCN)NC1=O)[C@@H](C)O [polymyxin B, Polymyxin B] (X1-[Dab]T[Dab][Dab][Dab][dF]L[Dab][Dab]T; lactam 4-C)
Q, intercompartmental clearance [1, 3]: 13.52 L/h
V1, typical volume of central compartment [1, 3]: 6.22 L
V2, typical volume of peripheral compartment [1, 3]: 11.92 L
V, volume of distribution ([1]; M7 (Yu et al.), 1 CMT, NONMEM (7.4), 32 patients): 20.5 L

CC[C@H](C)CCCCC(=O)N[C@@H](CCN)C(=O)N[C@H](C(=O)N[C@@H](CCN)C(=O)N[C@H]1CCNC(=O)[C@H]([C@@H](C)O)NC(=O)[C@H](CCN)NC(=O)[C@H](CCN)NC(=O)[C@H](CC(C)C)NC(=O)[C@@H](Cc2ccccc2)NC(=O)[C@H](CCN)NC1=O)[C@@H](C)O [polymyxin B1] (X1-[Dab]T[Dab][Dab][Dab][dF]L[Dab][Dab]T; lactam 4-C)
Plasma protein binding, B1 compared with B2 [2]: higher compared with B2
